# Test results published in the supplement of paper PMC10307832.
# Key:
# Test in all cases: relative viability (nuclei count vs DMSO), 5 days (fraction); higher = more cells survive
# ABC-1 = tested on: ABC-1
# How it was run: (§1)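 Relative viability was taken as the ratio of nuclei in treated wells to nuclei in vehicle wells. Lung cancer cell lines in 1536-well plates received compounds by pin tool one day after seeding, either one drug alone or a fixed anchor-drug dose plus five library-drug doses (not always all listed) in √10 steps. Nuclei were counted on 4× images after 5 days of treatment, and values are medians of duplicate plates.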
# COR-L23 = tested on: COR-L23
# How it was run: as §1
# ChaGo-K-1 = tested on: ChaGo-K-1
# How it was run: as §1
# EMC-BAC-2 = tested on: EMC-BAC-2
# How it was run: as §1
# HARA = tested on: HARA
# How it was run: as §1
# HCC-15 = tested on: HCC-15
# How it was run: as §1
# HCC-366 = tested on: HCC-366
# How it was run: as §1
# HCC-78 = tested on: HCC-78
# How it was run: as §1
# HOP-62 = tested on: HOP-62
# How it was run: as §1
# LC-2-ad = tested on: LC-2-ad
# How it was run: as §1
# NCI-H1395 = tested on: NCI-H1395
# How it was run: as §1
# NCI-H1793 = tested on: NCI-H1793
# How it was run: as §1
# NCI-H1944 = tested on: NCI-H1944
# How it was run: as §1
# NCI-H1993 = tested on: NCI-H1993
# How it was run: as §1
# NCI-H2023 = tested on: NCI-H2023
# How it was run: as §1
# NCI-H2126 = tested on: NCI-H2126
# How it was run: as §1
# NCI-H2228 = tested on: NCI-H2228
# How it was run: as §1
# NCI-H23 = tested on: NCI-H23
# How it was run: as §1
# NCI-H2405 = tested on: NCI-H2405
# How it was run: as §1
# NCI-H358 = tested on: NCI-H358
# How it was run: as §1
# NCI-H838 = tested on: NCI-H838
# How it was run: as §1
# SK-LU-1 = tested on: SK-LU-1
# How it was run: as §1
compound,measurement,setting,value
COc1cc2nccc(Oc3ccc(NC(=O)Nc4cc(C)on4)c(Cl)c3)c2cc1OC [Tivozanib] + O=C(c1cc(Cc2n[nH]c(=O)c3ccccc23)ccc1F)N1CCN(C(=O)C2CC2)CC1 [Olaparib] (partner 8 µM),relative viability,ABC-1; first compound 0.005 µM,0.815
same,relative viability,ABC-1; first compound 0.01581 µM,0.837
same,relative viability,ABC-1; first compound 0.05 µM,0.579
same,relative viability,ABC-1; first compound 0.1581 µM,1.02
same,relative viability,ABC-1; first compound 0.5 µM,0.67
same,relative viability,COR-L23; first compound 0.005 µM,0.324
same,relative viability,COR-L23; first compound 0.01581 µM,0.326
same,relative viability,COR-L23; first compound 0.05 µM,0.376
same,relative viability,COR-L23; first compound 0.1581 µM,0.363
same,relative viability,COR-L23; first compound 0.5 µM,0.298
same,relative viability,ChaGo-K-1; first compound 0.005 µM,0.386
same,relative viability,ChaGo-K-1; first compound 0.01581 µM,0.381
same,relative viability,ChaGo-K-1; first compound 0.05 µM,0.409
same,relative viability,ChaGo-K-1; first compound 0.1581 µM,0.412
same,relative viability,ChaGo-K-1; first compound 0.5 µM,0.37
same,relative viability,EMC-BAC-2; first compound 0.005 µM,0.492
same,relative viability,EMC-BAC-2; first compound 0.01581 µM,0.543
same,relative viability,EMC-BAC-2; first compound 0.05 µM,0.469
same,relative viability,EMC-BAC-2; first compound 0.1581 µM,0.472
same,relative viability,EMC-BAC-2; first compound 0.5 µM,0.358
same,relative viability,HARA; first compound 0.005 µM,0.606
same,relative viability,HARA; first compound 0.01581 µM,1.07
same,relative viability,HARA; first compound 0.05 µM,0.763
same,relative viability,HARA; first compound 0.1581 µM,1.15
same,relative viability,HARA; first compound 0.5 µM,0.893
same,relative viability,HCC-15; first compound 0.005 µM,0.661
same,relative viability,HCC-15; first compound 0.01581 µM,0.709
same,relative viability,HCC-15; first compound 0.05 µM,0.755
same,relative viability,HCC-15; first compound 0.1581 µM,0.696
same,relative viability,HCC-15; first compound 0.5 µM,0.553
same,relative viability,HCC-366; first compound 0.005 µM,0.367
same,relative viability,HCC-366; first compound 0.01581 µM,0.365
same,relative viability,HCC-366; first compound 0.05 µM,0.37
same,relative viability,HCC-366; first compound 0.1581 µM,0.363
same,relative viability,HCC-366; first compound 0.5 µM,0.352
same,relative viability,HCC-78; first compound 0.005 µM,0.796
same,relative viability,HCC-78; first compound 0.01581 µM,0.746
same,relative viability,HCC-78; first compound 0.05 µM,0.732
same,relative viability,HCC-78; first compound 0.1581 µM,0.872
same,relative viability,HCC-78; first compound 0.5 µM,0.581
same,relative viability,HOP-62; first compound 0.005 µM,0.472
same,relative viability,HOP-62; first compound 0.01581 µM,0.405
same,relative viability,HOP-62; first compound 0.05 µM,0.324
same,relative viability,HOP-62; first compound 0.1581 µM,0.537
same,relative viability,HOP-62; first compound 0.5 µM,0.37
same,relative viability,LC-2-ad; first compound 0.005 µM,0.768
same,relative viability,LC-2-ad; first compound 0.01581 µM,0.793
same,relative viability,LC-2-ad; first compound 0.05 µM,0.787
same,relative viability,LC-2-ad; first compound 0.1581 µM,0.794
same,relative viability,LC-2-ad; first compound 0.5 µM,0.729
same,relative viability,NCI-H1395; first compound 0.005 µM,0.421
same,relative viability,NCI-H1395; first compound 0.01581 µM,0.443
same,relative viability,NCI-H1395; first compound 0.05 µM,0.476
same,relative viability,NCI-H1395; first compound 0.1581 µM,0.484
same,relative viability,NCI-H1395; first compound 0.5 µM,0.422
same,relative viability,NCI-H1793; first compound 0.005 µM,0.804
same,relative viability,NCI-H1793; first compound 0.01581 µM,0.971
same,relative viability,NCI-H1793; first compound 0.05 µM,1.03
same,relative viability,NCI-H1793; first compound 0.5 µM,0.879
same,relative viability,NCI-H1944; first compound 0.005 µM,0.331
same,relative viability,NCI-H1944; first compound 0.01581 µM,0.395
same,relative viability,NCI-H1944; first compound 0.05 µM,0.416
same,relative viability,NCI-H1944; first compound 0.1581 µM,0.406
same,relative viability,NCI-H1944; first compound 0.5 µM,0.376
same,relative viability,NCI-H1993; first compound 0.005 µM,0.849
same,relative viability,NCI-H1993; first compound 0.01581 µM,1.03
same,relative viability,NCI-H1993; first compound 0.05 µM,0.988
same,relative viability,NCI-H1993; first compound 0.1581 µM,0.692
same,relative viability,NCI-H1993; first compound 0.5 µM,1.1
same,relative viability,NCI-H2023; first compound 0.005 µM,0.469
same,relative viability,NCI-H2023; first compound 0.01581 µM,0.476
same,relative viability,NCI-H2023; first compound 0.05 µM,0.454
same,relative viability,NCI-H2023; first compound 0.1581 µM,0.481
same,relative viability,NCI-H2023; first compound 0.5 µM,0.454
same,relative viability,NCI-H2126; first compound 0.005 µM,0.954
same,relative viability,NCI-H2126; first compound 0.01581 µM,0.907
same,relative viability,NCI-H2126; first compound 0.05 µM,1
same,relative viability,NCI-H2126; first compound 0.1581 µM,0.845
same,relative viability,NCI-H2126; first compound 0.5 µM,0.899
same,relative viability,NCI-H2228; first compound 0.005 µM,0.669
same,relative viability,NCI-H2228; first compound 0.01581 µM,0.956
same,relative viability,NCI-H2228; first compound 0.05 µM,0.771
same,relative viability,NCI-H2228; first compound 0.1581 µM,0.644
same,relative viability,NCI-H2228; first compound 0.5 µM,0.723
same,relative viability,NCI-H23; first compound 0.005 µM,0.363
same,relative viability,NCI-H23; first compound 0.01581 µM,0.288
same,relative viability,NCI-H23; first compound 0.05 µM,0.347
same,relative viability,NCI-H23; first compound 0.5 µM,0.253
same,relative viability,NCI-H2405; first compound 0.005 µM,0.831
same,relative viability,NCI-H2405; first compound 0.01581 µM,0.95
same,relative viability,NCI-H2405; first compound 0.05 µM,0.916
same,relative viability,NCI-H2405; first compound 0.1581 µM,1.01
same,relative viability,NCI-H2405; first compound 0.5 µM,0.669
same,relative viability,NCI-H358; first compound 0.005 µM,0.522
same,relative viability,NCI-H358; first compound 0.01581 µM,0.612
same,relative viability,NCI-H358; first compound 0.05 µM,0.583
same,relative viability,NCI-H358; first compound 0.1581 µM,0.61
same,relative viability,NCI-H358; first compound 0.5 µM,0.542
same,relative viability,NCI-H838; first compound 0.005 µM,0.785
same,relative viability,NCI-H838; first compound 0.01581 µM,0.785
same,relative viability,NCI-H838; first compound 0.05 µM,0.825
same,relative viability,NCI-H838; first compound 0.1581 µM,0.828
same,relative viability,NCI-H838; first compound 0.5 µM,0.773
same,relative viability,SK-LU-1; first compound 0.005 µM,0.465
same,relative viability,SK-LU-1; first compound 0.01581 µM,0.474
same,relative viability,SK-LU-1; first compound 0.05 µM,0.528
same,relative viability,SK-LU-1; first compound 0.1581 µM,0.384
same,relative viability,SK-LU-1; first compound 0.5 µM,0.464
